Values belong to the substance of their own block, whether it stands above or below them.
Legend:
Format in all cases: cell-based
[1] = test system: human atrial trabeculae; assay: Developed force of human atrial trabeculae exposed to exogenous IL-18 under normoxic conditions
Description: Mature IL-18 (100 ng/ml) were added to atrial trabeculae throughout the 90 min experimental period. The vertical axis indicates the mean percent change from baseline developed force. The baseline was determined at the end of the equilibration period (not shown). (n=6). *P<0.05, **P<0.001 as compared to control at the same interval and for the remainder of the experimental period.
Isolated Atrial Trabeculae Patients undergoing elective coronary artery bypass surgery with a pump oxygenator require insertion of a canula into the right atrium. At that time, a small segment of the right atrial appendage is routinely excised and discarded. Trabeculae were obtained from this discarded tissue. Human atrial tissue was placed in oxygenated modified Tyrode's buffer solution at 4° C. […]
(§1) Experimental Design Trabeculae were equilibrated for 90 min to increase the baseline stretch force to 1,000 mg and to allow stabilization of developed force. […] Contractions were monitored by force transducers (Grass FT03) and recorded with a computerized preamplifier and digitizer (MacLab Quad Bridge, MacLab/8e, AD Instruments, Milford, Mass.) and continuously monitored with a Macintosh computer.
Next, the direct effect of exogenous IL-18 on myocardial contractile function was determined. […]

[2] = test system: human atrial trabeculae; assay: Developed force of human atrial trabeculae exposed to exogenous TNFα, with or without IL-18BP; conditions: TNFα 1 ng/ml alone; after 90 minutes; n=5
Description: TNFα and IL-18BP were added to each bath change.
(§2) Isolated Atrial Trabeculae Patients undergoing elective coronary artery bypass surgery with a pump oxygenator require insertion of a canula into the right atrium. At that time, a small segment of the right atrial appendage is routinely excised and discarded. Trabeculae were obtained from this discarded tissue. Human atrial tissue was placed in oxygenated modified Tyrode's buffer solution at 4° C. Modified Tyrode's solution was prepared daily with deionized distilled water and contained D-glucose at 5.0 mmol/liter, CaCl2 at 2.0 mmol/liter, NaCl at 118.0 mmol/liter, KCl at 4.0 mmol/liter, MgSO4.7H2O at 1.2 mmol/liter, NaHCO3 at 25.0 mmol/liter, and NaH2PO4 at 1.2 mmol/liter. The substrate-free Tyrode's solution contained choline chloride at 7 mmol/liter to maintain osmolarity. Unless otherwise indicated, chemicals and reagents were obtained from Sigma. […]
as §1

[3] = test system: human atrial trabeculae; assay: Tissue creatine kinase (CK) activity in trabeculae exposed to TNFα, with or without IL-18BP; conditions: 90 minutes of TNFα exposure alone; n=6; control 6801±276
Description: CK activity is expressed in units of CK activity per milligram of wet tissue weight. (n=6).
Preserved Trabecular CK Activity End reperfusion tissue (90 min) CK activity was determined as described (Kaplan et al., 1993). Tissues were homogenized in 100 vol of ice-cold isotonic extraction buffer (Cleveland et al., 1997, Kaplan et al., 1993). The assay was performed with a CK kit (Sigma) by using an automated spectrophotometer. Results are presented as units of CK activity per mg (wet weight of tissue).
Casases are often associated with apoptosis. To assess cellular viability in trabeculae exposed to TNFα, tissue intracellular creatine kinase (CK) was measured. In this assay, high CK levels indicate viable cells. As depicted in FIG. 8, control trabeculae which underwent 90 minutes of normoxic superfusion, contained 6801±276 units of CK activity per milligram of wet tissue weight. […] Trabeculae exposed to TNFα in the presence of IL-18BP contained 5605±212 units/mg of tissue. […] This was an unexpected finding since the magnitude of developed force at the end of the experimental period was similar for I/R and TNFα.

[4] = test system: human atrial trabeculae; assay: Ischemia/reperfusion of suprafused human atrial trabeculae: postischemic developed force; conditions: N=7, I/R alone 35%
Description: as §2, with “mmol/liter.” for “mmol/liter. The substrate-free Tyrode's solution contained choline chloride at 7 mmol/liter to maintain osmolarity. Unless otherwise indicated, chemicals and reagents were obtained from Sigma.”
as §1, with “computer. […]” for “computer.”
Statisical Analysis Data are expressed as the mean±SEM. Mean changes in developed force were calculated relative to the control value at 90 min for each patient's tissue. Statistical significance of differences between groups were determined by factorial ANOVA with Bonferroni-Dunn post hoc analysis. […]

[5] = test system: human peripheral blood mononuclear cells; assay: Endotoxin-induced secretion of mature IL-1β by peripheral blood mononuclear cells (ELISA)
Description: Reagents IL-18BPa isoform was expressed with a N-terminal (His)6 tag in Chinese hamster ovary cells and purified to homogeneity. The ability of IL-18BPa-(His)6 to neutralize IL-18 has been described (Kim et al., 2000). The ICE inhibitor (ICEi) Ac-Try-Val-Ala-Asp-chloromethylketone (YVAD) was purchased from Alexis Biochemicals (San Diego) and solubililized in DMSO at 10 mg/ml. The ICEi was diluted in Tyrode's solution before being used. On human peripheral blood mononuclear cells, the ICEi reduces endotoxin-induced secretion of mature IL-1β by 92%, as measured by ELISA (Cistron Biotechnology, Pine Brook, NJ).

Substance: IL-18: exogenous mature IL-18 added to atrial trabeculae
decrease in developed force ([1]; IL-18 100 ng/ml, 90 minutes continuous exposure, normoxic, n=6): 42%
potency as myocardial depressant compared with TNFα ([1]; human atrial trabeculae): not as potent a myocardial depressant as is TNFα

preserved tissue CK activity [3]: 3246±217 units/mg
Substance: TNFα
decrease in developed force compared to control [2]: 58%

Substance: Ac-Try-Val-Ala-Asp-chloromethylketone [ICEi]
postischemic contractile function, percent of control ([4]; ICEi 10 μg/ml): 60%
postischemic contractile function, percent of control ([4]; ICEi 20 μg/ml): 75.8%
reduction of endotoxin-induced secretion of mature IL-1β [5]: 92%
